Laboratory results reported in PubChem BioAssay (NCI).
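GI50 is the concentration that inhibits growth by half. TGI: concentration producing complete growth inhibition.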

Experiments:
Experiment in all cases: growth of human tumour cells (NCI), 384-well format
786-0 renal = system: 786-0 renal
A498 renal = system: A498 renal
A549 NSCLC = system: A549 NSCLC
ACHN renal = system: ACHN renal
BT-549 breast = system: BT-549 breast
CAKI-1 renal = system: CAKI-1 renal
CCRF-CEM leukemia = system: CCRF-CEM leukemia
COLO 205 colon = system: COLO 205 colon
DU-145 prostate = system: DU-145 prostate
EKVX NSCLC = system: EKVX NSCLC
HCC-2998 colon = system: HCC-2998 colon
HCT-116 colon = system: HCT-116 colon
HCT-15 colon = system: HCT-15 colon
HL-60(TB) leukemia = system: HL-60(TB) leukemia
HOP-62 NSCLC = system: HOP-62 NSCLC
HOP-92 NSCLC = system: HOP-92 NSCLC
HS 578T breast = system: HS 578T breast
HT29 colon = system: HT29 colon
IGROV1 ovarian = system: IGROV1 ovarian
K-562 leukemia = system: K-562 leukemia
KM12 colon = system: KM12 colon
LOX IMVI melanoma = system: LOX IMVI melanoma
M14 melanoma = system: M14 melanoma
MALME-3M melanoma = system: MALME-3M melanoma
MCF7 breast = system: MCF7 breast
MDA-MB-231 breast = system: MDA-MB-231 breast
MDA-MB-435 melanoma = system: MDA-MB-435 melanoma
MDA-MB-468 breast = system: MDA-MB-468 breast
MOLT-4 leukemia = system: MOLT-4 leukemia
NCI-H226 lung = system: NCI-H226 lung
NCI-H23 lung = system: NCI-H23 lung
NCI-H322M lung = system: NCI-H322M lung
NCI-H460 NSCLC = system: NCI-H460 NSCLC
NCI-H522 lung = system: NCI-H522 lung
NCI/ADR-RES ovarian = system: NCI/ADR-RES ovarian
OVCAR-3 ovarian = system: OVCAR-3 ovarian
OVCAR-4 ovarian = system: OVCAR-4 ovarian
OVCAR-5 ovarian = system: OVCAR-5 ovarian
OVCAR-8 ovarian = system: OVCAR-8 ovarian
PC-3 prostate = system: PC-3 prostate
RPMI-8226 leukemia = system: RPMI-8226 leukemia
RXF 393 renal = system: RXF 393 renal
SF-268 CNS = system: SF-268 CNS
SF-295 CNS = system: SF-295 CNS
SF-539 CNS = system: SF-539 CNS
SK-MEL-28 melanoma = system: SK-MEL-28 melanoma
SK-MEL-5 melanoma = system: SK-MEL-5 melanoma
SK-OV-3 ovarian = system: SK-OV-3 ovarian
SN12C renal = system: SN12C renal
SNB-19 CNS = system: SNB-19 CNS
SNB-75 CNS = system: SNB-75 CNS
SW-620 colon = system: SW-620 colon
T-47D breast = system: T-47D breast
TK-10 renal = system: TK-10 renal
U251 glioblastoma = system: U251 glioblastoma
UACC-257 melanoma = system: UACC-257 melanoma
UACC-62 melanoma = system: UACC-62 melanoma
UO-31 renal = system: UO-31 renal

For `CC(C)(F)C[C@H](N[C@@H](c1ccc(-c2ccc(S(C)(=O)=O)cc2)cc1)C(F)(F)F)C(=O)NC1(C#N)CC1`, the GI50 ([…]-0 renal) was 21.9 µM, the TGI (786-0 renal) was 53.5 µM and the GI50 (A498 renal) was 21.3 µM. For the same molecule, the TGI (A498 renal) was 46.7 µM, the GI50 (A549 NSCLC) was 34.9 µM and the TGI (A549 NSCLC) was > 100 µM. For the same molecule, the GI50 (ACHN renal) was > 100 µM, the TGI (ACHN renal) was > 100 µM and the GI50 (BT-549 breast) was 39.7 µM. For the same molecule, the TGI (BT-549 breast) was > 100 µM, the GI50 (CAKI-1 renal) was 30.5 µM and the TGI (CAKI-1 renal) was > 100 µM. The GI50 (CCRF-CEM leukemia) was > 100 µM, the TGI (CCRF-CEM leukemia) was > 100 µM and the GI50 (COLO 205 colon) was > 100 µM. For the same molecule, the TGI (COLO 205 colon) was > 100 µM, the GI50 (DU-145 prostate) was 46.4 µM and the TGI (DU-145 prostate) was > 100 µM. The GI50 (EKVX NSCLC) was 39.2 µM, the TGI (EKVX NSCLC) was > 100 µM and the GI50 (HCC-2998 colon) was > 100 µM. The TGI (HCC-2998 colon) was > 100 µM, the GI50 (HCT-116 colon) was > 100 µM and the TGI (HCT-116 colon) was > 100 µM. The GI50 (HCT-15 colon) was > 100 µM, the TGI (HCT-15 colon) was > 100 µM and the GI50 (HL-60(TB) leukemia) was > 100 µM. The TGI (HL-60(TB) leukemia) was > 100 µM, the GI50 (HOP-62 NSCLC) was 22.8 µM and the TGI (HOP-62 NSCLC) was 63 µM. For the same molecule, the GI50 (HOP-92 NSCLC) was 11.2 µM, the TGI (HOP-92 NSCLC) was 28.9 µM and the GI50 (HS 578T breast) was 21.2 µM. The TGI (HS 578T breast) was 45.3 µM, the GI50 (HT29 colon) was > 100 µM and the TGI (HT29 colon) was > 100 µM. For the same molecule, the GI50 (IGROV1 ovarian) was > 100 µM, the TGI (IGROV1 ovarian) was > 100 µM and the GI50 (K-562 leukemia) was > 100 µM. For the same molecule, the TGI (K-562 leukemia) was > 100 µM, the GI50 (KM12 colon) was 43.6 µM and the TGI (KM12 colon) was > 100 µM. For the same molecule, the GI50 (LOX IMVI melanoma) was 59.3 µM, the TGI (LOX IMVI melanoma) was > 100 µM and the GI50 (M14 melanoma) was 71.5 µM. For the same molecule, the TGI (M14 melanoma) was > 100 µM, the GI50 (MALME-3M melanoma) was 33.7 µM and the TGI (MALME-3M melanoma) was 86.9 µM. For the same molecule, the GI50 (MCF7 breast) was 27.3 µM, the TGI (MCF7 breast) was 91.1 µM and the GI50 (MDA-MB-231 breast) was 39.6 µM. For the same molecule, the TGI (MDA-MB-231 breast) was > 100 µM, the GI50 (MDA-MB-435 melanoma) was 96.2 µM and the TGI (MDA-MB-435 melanoma) was > 100 µM. For the same molecule, the GI50 (MDA-MB-468 breast) was 39.4 µM, the TGI (MDA-MB-468 breast) was > 100 µM and the GI50 (MOLT-4 leukemia) was 41.1 µM. The TGI (MOLT-4 leukemia) was > 100 µM, the GI50 (NCI-H226 lung) was 23.5 µM and the TGI (NCI-H226 lung) was 54.6 µM. For the same molecule, the GI50 (NCI-H23 lung) was 30.9 µM, the TGI (NCI-H23 lung) was 83 µM and the GI50 (NCI-H322M lung) was 49.8 µM. For the same molecule, the TGI (NCI-H322M lung) was > 100 µM, the GI50 (NCI-H460 NSCLC) was 22.4 µM and the TGI (NCI-H460 NSCLC) was 53.8 µM. The GI50 (NCI-H522 lung) was 21.4 µM, the TGI (NCI-H522 lung) was 40.2 µM and the GI50 (NCI/ADR-RES ovarian) was 88.1 µM. For the same molecule, the TGI (NCI/ADR-RES ovarian) was > 100 µM, the GI50 (OVCAR-3 ovarian) was 31.1 µM and the TGI (OVCAR-3 ovarian) was 76.7 µM. For the same molecule, the GI50 (OVCAR-4 ovarian) was 19.8 µM, the TGI (OVCAR-4 ovarian) was 38 µM and the GI50 (OVCAR-5 ovarian) was > 100 µM. For the same molecule, the TGI (OVCAR-5 ovarian) was > 100 µM, the GI50 (OVCAR-8 ovarian) was 20.7 µM and the TGI (OVCAR-8 ovarian) was 46.1 µM. For the same molecule, the GI50 (PC-3 prostate) was 41.3 µM, the TGI (PC-3 prostate) was > 100 µM and the GI50 (RPMI-8226 leukemia) was 55.9 µM. The TGI (RPMI-8226 leukemia) was > 100 µM, the GI50 (RXF 393 renal) was 18.3 µM and the TGI (RXF 393 renal) was 35.3 µM. The GI50 (SF-268 CNS) was 22.1 µM, the TGI (SF-268 CNS) was 41 µM and the GI50 (SF-295 CNS) was 22.9 µM. The TGI (SF-295 CNS) was 63.4 µM, the GI50 (SF-539 CNS) was 23.1 µM and the TGI (SF-539 CNS) was 44.1 µM. The GI50 (SK-MEL-28 melanoma) was 40.9 µM, the TGI (SK-MEL-28 melanoma) was > 100 µM and the GI50 (SK-MEL-5 melanoma) was 23 µM. It also gave a TGI (SK-MEL-5 melanoma) of 55.8 µM, a GI50 (SK-OV-3 ovarian) of 27.3 µM and a TGI (SK-OV-3 ovarian) of 69.6 µM. The GI50 (SN12C renal) was 34.9 µM, the TGI (SN12C renal) was > 100 µM and the GI50 (SNB-19 CNS) was 35.7 µM. The TGI (SNB-19 CNS) was 92.4 µM, the GI50 (SNB-75 CNS) was 20.5 µM and the TGI (SNB-75 CNS) was 37.3 µM. The GI50 (SW-620 colon) was > 100 µM, the TGI (SW-620 colon) was > 100 µM and the GI50 (T-47D breast) was 36.6 µM. For the same molecule, the TGI (T-47D breast) was > 100 µM, the GI50 (TK-10 renal) was 33.1 µM and the TGI (TK-10 renal) was 97.9 µM. It also gave a GI50 (U251 glioblastoma) of 24.7 µM, a TGI (U251 glioblastoma) of 55.5 µM and a GI50 (UACC-257 melanoma) of 26.7 µM. For the same molecule, the TGI (UACC-257 melanoma) was 55.4 µM, the GI50 (UACC-62 melanoma) was 42.1 µM and the TGI (UACC-62 melanoma) was > 100 µM. The GI50 (UO-31 renal) was > 100 µM and the TGI (UO-31 renal) was > 100 µM.
